The structures appear in SMILES notation.

A short description of series [1]: Metabolic stability in rat liver microsomes (RLM). As to conditions: for microsomal CLint at 20 µM / half-life at 20 µM: male, rat, rat liver microsomes, pH 7.4, protein concentration 0.5 mg/mL; for half-life at 20 µM: read-out: Metabolic Stability t1/2; for Metabolic Stability Major Metabolite: protein concentration 0.5 mg/mL. Format: in vitro ADME. Here is the method:
Metabolic stability studies were performed according to reported protocols. […] All samples were analyzed in duplicate.
For orientation: Liver microsomes are a subcellular fraction often used to study metabolism.

The target in series [2] is T1, human 5-HT7b receptor (Homo sapiens, UniProt P34969).
T1 construct: expressed in transfected cells
Description: Radioligand binding, [3H]-5-CT displacement, HEK-293 cells. As to conditions: mean ± SEM, three independent binding experiments; read-out: Ki [nM] 5-HT7R. The method, then:
All experiments were performed in HEK-293 cells, which stably express the human 5-HT1A, 5-HT6, 5-HT7b, and D2L receptors, or using CHO-K1 cells expressing human serotonin 5-HT2A receptor, following the previously reported procedures. For displacement studies, the following radioligands (PerkinElmer, USA) at given concentrations were used at: 2.5 nM [^3H]-8-OH-DPAT (135.2 Ci/ mmol); 1 nM [^3H]-ketanserin (53.4 Ci/mmol); 2 nM [^3H]-LSD (83.6 Ci/mmol); 0.8 nM [^3H]-5-CT (39.2 Ci/mmol) or 2.5 nM [^3H]-raclopride (76.0 Ci/mmol) for 5-HT1A, 5-HT2A, 5-HT6, 5-HT7b and D2L receptors, respectively. All tested compounds were evaluated in triplicate at 7 concentrations (10^−10–10^−4 M). The inhibition constants (Ki) were calculated from the Cheng–Prusoff equation [25]. A detailed description is reported in the Supporting Information.
1. Procedure for radioligand binding assay
All experiments were carried out according to the previously published procedures. HEK293 cells stably expressing human 5-HT1A, 5-HT6, 5-HT7b and D2L receptors (prepared with the use of Lipofectamine 2000) or CHO-K1 cells with plasmid containing the sequence coding for the human serotonin 5-HT2A receptor (Perkin Elmer) were maintained at 37 °C in a humidified atmosphere containing 5% CO2 and grown in Dulbecco’s Modified Eagle’s Medium containing 10% dialyzed fetal bovine serum and 500 μg/ml G418 sulfate. For membrane preparation, cells were cultured in 150 cm2 flasks, grown to 90% confluence, washed twice with pre-warmed to 37 °C phosphate buffered saline (PBS) and centrifuged (200 × g) in PBS containing 0.1 mM EDTA and 1 mM dithiothreitol. Prior to membrane preparation, pellets were stored at –80 °C. […]
The process of equilibration was terminated by rapid filtration through Unifilter plates with a 96-well cell harvester and radioactivity retained on the filters was quantified on a Microbeta plate reader (PerkinElmer, USA). […] The inhibition constants (Ki) were calculated from the Cheng-Prusoff equation [4].

Series [3] has as its system C8-D1A astrocytes. Description: Glioprotection against rotenone-induced cytotoxicity, MTT. As to conditions: compound 0.25 µM, rotenone 0.5 µM, 24 h. The format is cell-based, mouse. Here is the method: (§1) Mouse astrocytes (C8-D1A cell line, ATCC) were cultured in DMEM (Dulbecco’s Modified Eagle’s Medium) supplemented with 10% FBS (FBS; Gibco, Life Technologies, Carlsbad, CA, USA) and 1% antibiotic mixture (Gibco, Life Technologies, Carlsbad, CA, USA) at standard condition until the cells reached 80–90% confluence. Cells were harvested and seeded in 96-well plates at a density of 5000 cells/well. All experiments were conducted with a reduced amount of serum equal to 2.5%. The optimal amount of serum was determined experimentally on the basis of preliminary studies. […] Then 6-OHDA (20 µM) or rotenone (0.5 µM) were added and co-incubated for the next 24 h. The ability of tested compounds to prevent 6-OHDA-induced or rotenone-induced cytotoxicity was assessed by MTT assay following the protocol described above. The experiments were run three times in triplicates.
(§2) Considering the pivotal physiological role of astrocytes in contrasting oxidative stress and promoting tissue repair, supporting their neuroprotective function might be regarded as a tangible strategy to improve the current therapeutic needs in the treatment of neurodegenerative disorders. […] For this purpose, cells were co-incubated with the evaluated compounds (at the non-toxic concentration of 0.25 µM) and 6-OHDA or ROT (20 and 0.5 µM, respectively). After 24 h of incubation, the viability of astrocytes was determined using the MTT assay.

For series [4], the system named is C8-D1A astrocytes. The series is described as follows: Glioprotection against 6-OHDA-induced cytotoxicity, MTT. The format is cell-based, mouse. As to conditions: compound 0.25 µM, 6-OHDA 20 µM, 24 h. The method, then: as §1, §2

T1 sequence (P34969 1-432 limits assumed): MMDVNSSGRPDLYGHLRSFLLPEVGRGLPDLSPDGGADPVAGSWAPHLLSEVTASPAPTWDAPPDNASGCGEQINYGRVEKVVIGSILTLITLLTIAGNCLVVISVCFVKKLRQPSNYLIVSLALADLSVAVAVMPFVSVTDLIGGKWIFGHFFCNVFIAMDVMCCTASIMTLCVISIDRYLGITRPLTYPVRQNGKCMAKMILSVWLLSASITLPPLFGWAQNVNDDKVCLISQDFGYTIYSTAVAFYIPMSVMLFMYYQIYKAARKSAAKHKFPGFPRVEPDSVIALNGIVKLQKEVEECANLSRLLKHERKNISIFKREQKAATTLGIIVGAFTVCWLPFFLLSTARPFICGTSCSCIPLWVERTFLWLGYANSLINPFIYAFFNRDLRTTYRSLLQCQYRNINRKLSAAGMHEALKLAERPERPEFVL

As for `O=S(=O)(c1cccc(N2CCNCC2)c1)N1Cc2ccccc2C1` [3e, 2-{[3-(Piperazin-1-yl)phenyl]sulfonyl}isoindoline], in series [1], the intrinsic clearance (microsomal CLint) at 20 µM is 3.78 µL/min/mg, the half-life at 20 µM was found to be 6.12 h and the “Metabolic Stability Major Metabolite” value was “not detected”. Further, the Ki in series [2] was 4530 ± 327 nM.

With `O=S(=O)(c1cccc(N2CCNCC2)c1)N1Cc2cccc(Cl)c2C1` [3f, 4-Chloro-2-{[3-(piperazin-1-yl)phenyl]sulfonyl}isoindoline], in series [1], the intrinsic metabolic clearance (microsomal CLint) at 20 µM was determined as 18 µL/min/mg, the half-life at 20 µM was 1.28 h and the “Metabolic Stability Major Metabolite” value was “hydroxylated”. Besides, the Ki in series [2] is 10700 ± 1030 nM.

As to `O=S(=O)(c1cccc(N2CCNCC2)c1)N1Cc2cccc(Br)c2C1` [3g, 4-Bromo-2-{[3-(piperazin-1-yl)phenyl]sulfonyl}isoindoline], the “effect on ROT-induced cytotoxicity” value in series [3] was “decreased the cytotoxicity”. For the same compound, the “effect on 6-OHDA-induced cytotoxicity” value in series [4] is “decreased the cytotoxicity”. For the same compound, in series [1], the intrinsic clearance (microsomal CLint) at 20 µM stood at 14.7 µL/min/mg, the half-life at 20 µM was found to be 1.57 h and the “Metabolic Stability Major Metabolite” value is listed as “hydroxylated”. In addition, in series [2], the Ki was found to be 8800 ± 854 nM.

Broadly, the microsomal CLint is the capacity of the preparation to metabolise the compound, expressed as a volume cleared per time. The term Ki denotes the dissociation constant of the complex between target and ligand, obtained from inhibition or displacement.

The record behind these values is article PMC9855333, “1-(Arylsulfonyl-isoindol-2-yl)piperazines as 5-HT6R Antagonists: Mechanochemical Synthesis, In Vitro Pharmacological Properties and Glioprotective Activity” (Biomolecules, 2022).
